{"source": "patent US9738634B2", "about": "“Heterocyclic amide compound and herbicide” (SYNGENTA PARTICIPATIONS AG, priority 2013, dated 2017)", "format_in_all_cases": "in vivo", "key": {"oval-leafed pondweed [1]": {"test_system": "oval-leafed pondweed", "assay": "Test Example 2: weedkilling efficacy, growth period weed treatment in the submerged state; C: oval-leafed pondweed", "conditions": "treatment dosage 252 g/ha", "outline": "(§1)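 First, alluvial soil in pots is flooded to 4 cm and mixed seed is sown. Next, plants grow in a greenhouse at 25 to 30° C until the 1-2 leaf stage. Then diluted emulsion is applied onto the water surface at the given g/ha rate, and injury is assessed after 3 weeks.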"}, "birds-eye speedwell [2]": {"test_system": "birds-eye speedwell", "assay": "Test Example 4: weedkilling efficacy by foliar treatment; p: birds-eye speedwell", "conditions": "treatment dosage 315 g/ha", "outline": "(§2)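 Seeds are spot-sown into sterilized diluvial soil and covered with about 1.5 cm of soil. After 14 days' greenhouse growth at 25 to 30° C, plants are sprayed on stems and leaves with diluted emulsion at the stated g/ha rate, then scored at 3 weeks.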"}, "black-grass [3]": {"test_system": "black-grass", "assay": "Test Example 3: weedkilling efficacy through soil treatment; H: black-grass", "conditions": "treatment dosage 315 g/ha", "outline": "(§3)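 Crop and weed responses were judged three weeks after a uniform surface spray of the water-diluted emulsion at the given g/ha rate. Seeds sat beneath about 1.5 cm of sterilized diluvial soil, and boxes stood in a greenhouse at 25 to 30° C.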"}, "wheat [4]": {"test_system": "wheat", "assay": "Test Example 4: foliar treatment, effect on crop; e: wheat", "conditions": "treatment dosage 315 g/ha", "outline": "as §2"}, "catchweed": {"test_system": "catchweed", "assay": "Test Example 4: weedkilling efficacy by foliar treatment; O: catchweed", "conditions": "treatment dosage 315 g/ha", "outline": "as §2"}, "chickweed [5]": {"test_system": "chickweed", "assay": "Test Example 3: weedkilling efficacy through soil treatment; N: chickweed", "conditions": "treatment dosage 315 g/ha", "outline": "as §3"}, "corn [6]": {"test_system": "corn", "assay": "Test Example 3: soil treatment, effect on crop; c: corn", "conditions": "treatment dosage 315 g/ha", "outline": "as §3"}, "corn [7]": {"test_system": "corn", "assay": "Test Example 4: foliar treatment, effect on crop; c: corn", "conditions": "treatment dosage 315 g/ha", "outline": "as §2"}, "Indian mallow [8]": {"test_system": "Indian mallow", "assay": "Test Example 4: weedkilling efficacy by foliar treatment; K: Indian mallow", "conditions": "treatment dosage 315 g/ha", "outline": "as §2"}, "Indian mallow [9]": {"test_system": "Indian mallow", "assay": "Test Example 3: weedkilling efficacy through soil treatment; K: Indian mallow", "conditions": "treatment dosage 315 g/ha", "outline": "as §3"}, "barnyard grass [10]": {"test_system": "barnyard grass", "assay": "Test Example 1: weedkilling efficacy, preemergent weed treatment in the submerged state; A: barnyard grass", "conditions": "treatment dosage 252 g/ha", "outline": "(§4)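 Alluvial soil in Wagner pots flooded to 4 cm; barnyard grass, bulrush and oval-leafed pondweed seeds sown, then 2.5-leaf rice seedlings transplanted. Same day, emulsified compound diluted in water to set g/ha dosages and applied to water surface; greenhouse 25–30 °C, effect scored by criteria after 3 weeks.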"}, "wild oat": {"test_system": "wild oat", "assay": "Test Example 3: weedkilling efficacy through soil treatment; G: wild oat", "conditions": "treatment dosage 315 g/ha", "outline": "as §3"}, "redroot pigweed [11]": {"test_system": "redroot pigweed", "assay": "Test Example 3: weedkilling efficacy through soil treatment; L: redroot pigweed", "conditions": "treatment dosage 315 g/ha", "outline": "as §3"}, "Italian ryegrass [12]": {"test_system": "Italian ryegrass", "assay": "Test Example 4: weedkilling efficacy by foliar treatment; I: Italian ryegrass", "conditions": "treatment dosage 315 g/ha", "outline": "as §2"}, "chickweed [13]": {"test_system": "chickweed", "assay": "Test Example 4: weedkilling efficacy by foliar treatment; N: chickweed", "conditions": "treatment dosage 315 g/ha", "outline": "as §2"}, "green foxtail [14]": {"test_system": "green foxtail", "assay": "Test Example 3: weedkilling efficacy through soil treatment; E: green foxtail", "conditions": "treatment dosage 315 g/ha", "outline": "as §3"}, "transplanted rice": {"test_system": "transplanted rice", "assay": "Test Example 1: preemergent weed treatment in the submerged state, effect on crop; a: transplanted rice", "conditions": "treatment dosage 252 g/ha", "outline": "as §4"}, "wheat [15]": {"test_system": "wheat", "assay": "Test Example 3: soil treatment, effect on crop; e: wheat", "conditions": "treatment dosage 315 g/ha", "outline": "as §3"}, "fig-leafed goosefoot [16]": {"test_system": "fig-leafed goosefoot", "assay": "Test Example 3: weedkilling efficacy through soil treatment; M: fig-leafed goosefoot", "conditions": "treatment dosage 315 g/ha", "outline": "as §3"}, "bulrush [17]": {"test_system": "bulrush", "assay": "Test Example 2: weedkilling efficacy, growth period weed treatment in the submerged state; B: bulrush", "conditions": "treatment dosage 252 g/ha", "outline": "as §1"}, "soybean [18]": {"test_system": "soybean", "assay": "Test Example 3: soil treatment, effect on crop; d: soybean", "conditions": "treatment dosage 315 g/ha", "outline": "as §3"}, "redroot pigweed [19]": {"test_system": "redroot pigweed", "assay": "Test Example 4: weedkilling efficacy by foliar treatment; L: redroot pigweed", "conditions": "treatment dosage 315 g/ha", "outline": "as §2"}, "green foxtail [20]": {"test_system": "green foxtail", "assay": "Test Example 4: weedkilling efficacy by foliar treatment; E: green foxtail", "conditions": "treatment dosage 315 g/ha", "outline": "as §2"}, "barnyard grass [21]": {"test_system": "barnyard grass", "assay": "Test Example 2: weedkilling efficacy, growth period weed treatment in the submerged state; A: barnyard grass", "conditions": "treatment dosage 252 g/ha", "outline": "as §1"}, "crabgrass [22]": {"test_system": "crabgrass", "assay": "Test Example 3: weedkilling efficacy through soil treatment; D: crabgrass", "conditions": "treatment dosage 315 g/ha", "outline": "as §3"}, "bulrush [23]": {"test_system": "bulrush", "assay": "Test Example 1: weedkilling efficacy, preemergent weed treatment in the submerged state; B: bulrush", "conditions": "treatment dosage 252 g/ha", "outline": "as §4"}, "Italian ryegrass [24]": {"test_system": "Italian ryegrass", "assay": "Test Example 3: weedkilling efficacy through soil treatment; I: Italian ryegrass", "conditions": "treatment dosage 315 g/ha", "outline": "as §3"}, "black-grass [25]": {"test_system": "black-grass", "assay": "Test Example 4: weedkilling efficacy by foliar treatment; H: black-grass", "conditions": "treatment dosage 315 g/ha", "outline": "as §2"}, "fig-leafed goosefoot [26]": {"test_system": "fig-leafed goosefoot", "assay": "Test Example 4: weedkilling efficacy by foliar treatment; M: fig-leafed goosefoot", "conditions": "treatment dosage 315 g/ha", "outline": "as §2"}, "beet [27]": {"test_system": "beet", "assay": "Test Example 4: foliar treatment, effect on crop; f: beet", "conditions": "treatment dosage 315 g/ha", "outline": "as §2"}, "soybean [28]": {"test_system": "soybean", "assay": "Test Example 4: foliar treatment, effect on crop; d: soybean", "conditions": "treatment dosage 315 g/ha", "outline": "as §2"}, "beet [29]": {"test_system": "beet", "assay": "Test Example 3: soil treatment, effect on crop; f: beet", "conditions": "treatment dosage 315 g/ha", "outline": "as §3"}, "directly sown rice [30]": {"test_system": "directly sown rice", "assay": "Test Example 3: soil treatment, effect on crop; b: directly sown rice", "conditions": "treatment dosage 315 g/ha", "outline": "as §3"}, "oval-leafed pondweed [31]": {"test_system": "oval-leafed pondweed", "assay": "Test Example 1: weedkilling efficacy, preemergent weed treatment in the submerged state; C: oval-leafed pondweed", "conditions": "treatment dosage 252 g/ha", "outline": "as §4"}, "crabgrass [32]": {"test_system": "crabgrass", "assay": "Test Example 4: weedkilling efficacy by foliar treatment; D: crabgrass", "conditions": "treatment dosage 315 g/ha", "outline": "as §2"}, "directly sown rice [33]": {"test_system": "directly sown rice", "assay": "Test Example 4: foliar treatment, effect on crop; b: directly sown rice", "conditions": "treatment dosage 315 g/ha", "outline": "as §2"}, "birds-eye speedwell [34]": {"test_system": "birds-eye speedwell", "assay": "Test Example 3: weedkilling efficacy through soil treatment; p: birds-eye speedwell", "conditions": "treatment dosage 315 g/ha", "outline": "as §3"}}, "data": [{"smiles": "CC1=C(c2ccsc2)C(=O)N(C(C)(C)C(=O)Nc2cccc(Br)n2)CO1", "note": "[B-2-06]", "values": [{"measurement": "C (oval-leafed pondweed) weedkilling efficacy grade", "setting": "oval-leafed pondweed [1]", "result": "5 (weed kill ratio 90% or more, (practically complete withering))"}, {"measurement": "P (birds-eye speedwell) weedkilling efficacy grade", "setting": "birds-eye speedwell [2]", "result": "5 (weed kill ratio 90% or more, (practically complete withering))"}, {"measurement": "H (black-grass) weedkilling efficacy grade", "setting": "black-grass [3]", "result": "5 (weed kill ratio 90% or more, (practically complete withering))"}, {"measurement": "e (wheat) effect on crop grade", "setting": "wheat [4]", "result": "4 (weed kill ratio 70% or more, less than 90%)"}, {"measurement": "O (catchweed) weedkilling efficacy grade", "setting": "catchweed", "result": "4 (weed kill ratio 70% or more, less than 90%)"}, {"measurement": "N (chickweed) weedkilling efficacy grade", "setting": "chickweed [5]", "result": "4 (weed kill ratio 70% or more, less than 90%)"}, {"measurement": "c (corn) effect on crop grade", "setting": "corn [6]", "result": "0 (weed kill ratio 5% or less (practically no effect))"}, {"measurement": "c (corn) effect on crop grade", "setting": "corn [7]", "result": "1 (weed kill ratio 5% or more, less than 20%)"}, {"measurement": "K (Indian mallow) weedkilling efficacy grade", "setting": "Indian mallow [8]", "result": "3 (weed kill ratio 40% or more, less than 70%)"}, {"measurement": "K (Indian mallow) weedkilling efficacy grade", "setting": "Indian mallow [9]", "result": "4 (weed kill ratio 70% or more, less than 90%)"}, {"measurement": "A (barnyard grass) weedkilling efficacy grade", "setting": "barnyard grass [10]", "result": "5 (weed kill ratio 90% or more, (practically complete withering))"}, {"measurement": "G (wild oat) weedkilling efficacy grade", "setting": "wild oat", "result": "5 (weed kill ratio 90% or more, (practically complete withering))"}, {"measurement": "L (redroot pigweed) weedkilling efficacy grade", "setting": "redroot pigweed [11]", "result": "5 (weed kill ratio 90% or more, (practically complete withering))"}, {"measurement": "I (Italian ryegrass) weedkilling efficacy grade", "setting": "Italian ryegrass [12]", "result": "5 (weed kill ratio 90% or more, (practically complete withering))"}, {"measurement": "N (chickweed) weedkilling efficacy grade", "setting": "chickweed [13]", "result": "4 (weed kill ratio 70% or more, less than 90%)"}, {"measurement": "E (green foxtail) weedkilling efficacy grade", "setting": "green foxtail [14]", "result": "5 (weed kill ratio 90% or more, (practically complete withering))"}, {"measurement": "a (transplanted rice) effect on crop grade", "setting": "transplanted rice", "result": "4 (weed kill ratio 70% or more, less than 90%)"}, {"measurement": "e (wheat) effect on crop grade", "setting": "wheat [15]", "result": "5 (weed kill ratio 90% or more, (practically complete withering))"}, {"measurement": "M (fig-leafed goosefoot) weedkilling efficacy grade", "setting": "fig-leafed goosefoot [16]", "result": "5 (weed kill ratio 90% or more, (practically complete withering))"}, {"measurement": "B (bulrush) weedkilling efficacy grade", "setting": "bulrush [17]", "result": "5 (weed kill ratio 90% or more, (practically complete withering))"}, {"measurement": "d (soybean) effect on crop grade", "setting": "soybean [18]", "result": "2 (weed kill ratio 20% or more, less than 40%)"}, {"measurement": "L (redroot pigweed) weedkilling efficacy grade", "setting": "redroot pigweed [19]", "result": "5 (weed kill ratio 90% or more, (practically complete withering))"}, {"measurement": "E (green foxtail) weedkilling efficacy grade", "setting": "green foxtail [20]", "result": "5 (weed kill ratio 90% or more, (practically complete withering))"}, {"measurement": "A (barnyard grass) weedkilling efficacy grade", "setting": "barnyard grass [21]", "result": "5 (weed kill ratio 90% or more, (practically complete withering))"}, {"measurement": "D (crabgrass) weedkilling efficacy grade", "setting": "crabgrass [22]", "result": "5 (weed kill ratio 90% or more, (practically complete withering))"}, {"measurement": "B (bulrush) weedkilling efficacy grade", "setting": "bulrush [23]", "result": "5 (weed kill ratio 90% or more, (practically complete withering))"}, {"measurement": "I (Italian ryegrass) weedkilling efficacy grade", "setting": "Italian ryegrass [24]", "result": "5 (weed kill ratio 90% or more, (practically complete withering))"}, {"measurement": "H (black-grass) weedkilling efficacy grade", "setting": "black-grass [25]", "result": "5 (weed kill ratio 90% or more, (practically complete withering))"}, {"measurement": "M (fig-leafed goosefoot) weedkilling efficacy grade", "setting": "fig-leafed goosefoot [26]", "result": "4 (weed kill ratio 70% or more, less than 90%)"}, {"measurement": "f (beet) effect on crop grade", "setting": "beet [27]", "result": "4 (weed kill ratio 70% or more, less than 90%)"}, {"measurement": "d (soybean) effect on crop grade", "setting": "soybean [28]", "result": "4 (weed kill ratio 70% or more, less than 90%)"}, {"measurement": "f (beet) effect on crop grade", "setting": "beet [29]", "result": "5 (weed kill ratio 90% or more, (practically complete withering))"}, {"measurement": "b (directly sown rice) effect on crop grade", "setting": "directly sown rice [30]", "result": "5 (weed kill ratio 90% or more, (practically complete withering))"}, {"measurement": "C (oval-leafed pondweed) weedkilling efficacy grade", "setting": "oval-leafed pondweed [31]", "result": "5 (weed kill ratio 90% or more, (practically complete withering))"}, {"measurement": "D (crabgrass) weedkilling efficacy grade", "setting": "crabgrass [32]", "result": "5 (weed kill ratio 90% or more, (practically complete withering))"}, {"measurement": "b (directly sown rice) effect on crop grade", "setting": "directly sown rice [33]", "result": "5 (weed kill ratio 90% or more, (practically complete withering))"}, {"measurement": "P (birds-eye speedwell) weedkilling efficacy grade", "setting": "birds-eye speedwell [34]", "result": "5 (weed kill ratio 90% or more, (practically complete withering))"}]}]}
